This is an account of results in patent US11613533B2, “Compounds useful for inhibiting RET kinase” (Eli Lilly and Company, priority 2020, dated 2023).

The target of series [1] is T1, KIF5B-RET mutant form V804M in HEK293 cells (Homo sapiens, UniProt P07949, V804M).
T1 construct: expressed in transfected cells; host or cells: HEK293; the other entry of the earlier key: KIF5B (P33176, Kinesin-1 heavy chain)
T1 sequence (P07949 713-1063 V804M limits assumed): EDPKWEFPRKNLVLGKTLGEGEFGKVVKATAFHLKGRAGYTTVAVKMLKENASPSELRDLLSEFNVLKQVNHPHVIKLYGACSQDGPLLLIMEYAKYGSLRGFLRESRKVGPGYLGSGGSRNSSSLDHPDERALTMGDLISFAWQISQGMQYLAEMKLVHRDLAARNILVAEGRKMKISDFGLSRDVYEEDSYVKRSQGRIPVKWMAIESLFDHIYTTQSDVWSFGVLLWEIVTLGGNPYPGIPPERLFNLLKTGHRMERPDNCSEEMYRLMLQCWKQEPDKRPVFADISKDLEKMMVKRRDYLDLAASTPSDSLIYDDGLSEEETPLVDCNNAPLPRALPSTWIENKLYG
The series can be described thus: RET cell assay (In-Cell Western, phospho-RET Y1062), V804M. In kind it is cell-based. To be noted: HEK293, doxycycline-induced KIF5B-RET V804M, 1 hr compound treatment; read-out: EC50, inhibition of intracellular autophosphorylation of RET at tyrosine 1062, V804M cells. The protocol: (§1) Compounds of formulas (I), (II), and (III) are screened for their ability to inhibit the intracellular autophosphorylation of RET at tyrosine 1062 as detected by In-Cell Western. HEK293 cells containing a doxycycline-inducible plasmid for inducible expression of KIF5B-RET WT and RET mutant forms V804M and G810S are seeded at 25,000 cells/well into black poly-D-lysine pre-coated 384-well plates (Corning, Catalog No. 356697). Expression of KIF5B-RET is induced with doxycycline at 1 μg/mL and cells are incubated at 37° C. overnight. Compounds are prepared in a threefold serial dilution in DMSO before further diluting 1:100 in media prior to the addition to the cells (0.1% final DMSO concentration). Compound treatment is performed for 1 hr at 37° C. followed by fixation of cells with 4% formaldehyde for 20 min at RT and cell permeabilisation with ice-cold MeOH for 10 min at RT. Cells are incubated with Intercept® blocking buffer (Li—COR, Catalogue No. 927-70010) for 1 hr at RT. Incubation with primary antibodies against human phospho-RET (Y1062) (R&D, Catalogue No. AF5009, 1/250 dilution) and human glyceraldehyde-3-phosphate dehydrogenase (clone 6C5, Merck, Catalog No. MAB374, 1/1000 dilution) are performed overnight at 4° C. Incubation with secondary antibodies IRDye® 800CW goat anti-rabbit IgG (Li—COR, Catalogue No. 926-32211, 1/1000 dilution) and IRDye® 680CW goat anti-mouse IgG (Li—COR, Catalogue No. 926-68070, 1/1000 dilution) are performed for 1 hr at RT. All antibody dilutions are done in Intercept® blocking buffer containing 0.05% Tween20. After washing cells with PBS-T (Cell Signaling technology, Catalogue No. 9809), the images are acquired on a Li—COR Odyssey LCx at 700 and 800 nm. Percent of DMSO control is calculated with 100% signal referring to control conditions containing no compound (0.4% DMSO only) and 0% signal represented by conditions containing control compound. The % of DMSO control values are fit to a 4 parameter logistic curve, and the determined EC50 value is defined as the estimated concentration of inhibitor at the inflexion point of the fitted curve.

Series [2] addresses T2, KIF5B-RET WT in HEK293 cells (Homo sapiens, UniProt P07949).
T2 construct: expressed in transfected cells; host or cells: HEK293; the other entry of the earlier key: KIF5B (P33176, Kinesin-1 heavy chain)
T2 sequence (P07949 713-1063 limits assumed): T1 sequence (P07949 713-1063 V804M limits assumed) with M92V
The series can be described thus: RET cell assay (In-Cell Western, phospho-RET Y1062), wildtype. In kind it is cell-based. To be noted: HEK293, doxycycline-induced KIF5B-RET WT, 1 hr compound treatment; read-out: EC50, inhibition of intracellular autophosphorylation of RET at tyrosine 1062, wildtype cells. The protocol:
as §1

Series [3] has as its target T3, KIF5B-RET mutant form G810S in HEK293 cells (Homo sapiens, UniProt P07949, G810S).
T3 construct: expressed in transfected cells; host or cells: HEK293; the other entry of the earlier key: KIF5B (P33176, Kinesin-1 heavy chain)
T3 sequence (P07949 713-1063 G810S limits assumed): T1 sequence (P07949 713-1063 V804M limits assumed) with M92V, G98S
The series can be described thus: RET cell assay (In-Cell Western, phospho-RET Y1062), G810S. In kind it is cell-based. To be noted: HEK293, doxycycline-induced KIF5B-RET G810S, 1 hr compound treatment; read-out: EC50, inhibition of intracellular autophosphorylation of RET at tyrosine 1062, G810S cells. As to the method: as §1

Each structure is given as a SMILES string. Numbering of substitutions follows the chain as printed.

In turn, `CC(C(=O)Nc1cc(CC(C)(C)C)no1)c1ccc(-c2nn(C(C)C)c(N)c2C(N)=O)cc1` (single isomer, unassigned; isomer 2) [Example 2, 5-Amino-3-[4-(1-[[3-(2,2-dimethylpropyl)-1,2-oxazol-5-yl]carbamoyl]ethyl)phenyl]-1-isopropylpyrazole-4-carboxamide, Isomer 2] displayed a melting point of 128 °C.
Regarding `CC(C(=O)Nc1cc(C(C)(C)C(F)(F)F)on1)c1ccc(-c2nn(C3(C)CC3)c(N)c2C(N)=O)nc1` (single isomer, unassigned; isomer 1) [Example 31, 5-Amino-1-(1-methylcyclopropyl)-3-[5-[(1-[[5-[1,1,1-trifluoro-2-methylpropan-2-yl)-1,2-oxazol-3-yl]carbamoyl]ethyl]pyridin-2-yl]pyrazole-4-carboxamide, Isomer 1], the EC50 in series [1], in series [2] and in series [3] was less than 100 nM each time.
Regarding `CC(C(=O)Nc1cc(CC(C)(C)C)no1)c1ccc(-c2nn(C3(C)CC3)c(N)c2C(N)=O)nc1` (single isomer, unassigned; isomer 1) [Example 33, 5-Amino-3-[5-[1-[[3-(2,2-dimethylpropyl)-1,2-oxazol-5-yl]carbamoyl]ethyl]pyridin-2-yl]-1-(1-methylcyclopropyl)pyrazole-4-carboxamide, Isomer 1], the EC50 in series [1], in series [2] and in series [3] was less than 100 nM in each case.
